Data set [1] deals with NMDA receptor. The note with it: literature, cited from earlier work; for motor impairment: relative to analgesic doses.
Data set [2] deals with Male Sprague-Dawley rats. The note with it: rat, in vivo.
Data set [3] concerns formalin test. The note with it: literature; ifenprodil at a high dose; cited from earlier work.
The test system of data set [4] is Male Sprague-Dawley rats. As to conditions: rat, in vivo. The source holds these as a separate data set.
In data set [5] the test system is NMDA polyamine site, forebrain membrane preparations. The note with it: cited from earlier work.
For data set [6], the system named is GABAergic neurons of the QA lesioned striatum. As to conditions: rat, in vivo.
For data set [7], the system named is cholinergic neurons of the QA lesioned striatum. The note with it: rat, in vivo.

Entries after “also recorded” stand apart in the source; their conditions may differ.

On to `c1ccc(C2(N3CCCCC3)CCCCC2)cc1` [phenylcyclidine (PCP), phenylcyclidine], for which, in data set [1], the analgesic activity result was “show analgesic activity” and the motor impairment entry is given as “show motor impairment at equivalent doses”.

“Gly-Glu-Gla-Gla-Val-Ala-Lys-Met-Ala-Ala-Glu-Leu-Ala-Arg-Glu-Asn-Ile-Ala-Lys-Gly-Cys-Lys-Val-Asn-Cys-Tyr-Pro [Conantokin R]”: in data set [2], the “dose required to inhibit / significantly attenuate phase I flinches” value was 3.3 µg and the “dose required to inhibit / significantly attenuate phase II flinches” value stood at 3.3 µg.

Consider `C[C@]12N[C@H](Cc3ccccc31)c1ccccc12` [MK-801], for which the “analgesic effect in the formalin test” value in data set [3] is given as “submaximal analgesic effect”. Moreover, in data set [2], the “dose required to inhibit / significantly attenuate phase II flinches” value came to 30 µg. Moreover, in data set [4], the “side effects at the dose attenuating phase II flinches” value is “side effects, including head weaving” and the “toxicity at doses that decreased flinches” value is “clear toxicity”. For the same molecule, in data set [1], the analgesic activity entry is “show analgesic activity” and the motor impairment result is given as “show motor impairment at equivalent doses”.

As to `CC(C(O)c1ccc(O)cc1)N1CCC(Cc2ccccc2)CC1` (stereo not shown) [ifenprodil], in data set [3], the “analgesic effect in the formalin test” value is recorded as “did not have an analgesic effect; also recorded: no effect”.

As to `NCCCNCCCCNCCCN` [spermine], in data set [5], the “maximal effective concentration for enhancement of [3H]MK-801 binding” value is recorded as “about 20 μM”.

Regarding β-endorphin, in data set [2], the “dose at which maximal possible effect was observed, phase I” value was 1.0 µg; the “dose at which maximal possible effect was observed, phase II” value came to 3.3 µg; the “dose required to inhibit / significantly attenuate phase I flinches” value was determined as 0.3 µg; the “dose required to inhibit / significantly attenuate phase II flinches” value came out at 0.6 µg. Also, in data set [2], the “effect of the single agent alone” value is on record as “no effect”; the “effect on flinches in both phase I and phase II” value was “dose-dependent decrease in flinches”; the “effect on phase I flinches” value is listed as “no effect”; the “effect on phase II flinches” value is on record as “no effect”. The overt side effects result in data set [4] was “overt signs of sedation and motor impairment”.

Take “Gly-Glu-Gla-Gla-Leu-Gln-Gla-Asn-Gln-Gla-Leu-Ile-Arg-Gla-Lys-Ser-Asn-NH2 [Conantokin G]”: in data set [2], the “dose required to inhibit / significantly attenuate phase I flinches” value came out at 1.0 µg and the “dose required to inhibit / significantly attenuate phase II flinches” value stood at 0.05 µg. Further, the “QA lesion-induced loss of GAD activity” value in data set [6] was “completely blocked; also recorded: complete prevention”. Further, the “QA lesion-induced loss of ChAT activity” value in data set [7] is “completely blocked”.
